In ChEMBL document CHEMBL1201862, “PubChem BioAssay data set” (2004):
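Tested at 5 concentrations; 48 h exposure; 96-well plates; endpoints linearly interpolated, else capped at highest concentration. GI50 = concentration required for 50% inhibition of growth.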 The source made the active and inactive calls. No stated cut-off is given here; in the data, active = GI50 up to about 1.1 µM and inactive = higher.

Key:
Assay in all cases: growth of human tumour cells (NCI), 48 h
NCI-H460 = test system: NCI-H460
NCI/ADR-RES = test system: NCI/ADR-RES
DU-145 = test system: DU-145
NCI-H226 = test system: NCI-H226
MDA-N = test system: MDA-N
OVCAR-5 = test system: OVCAR-5
EKVX = test system: EKVX
SW-620 = test system: SW-620
SK-MEL-2 = test system: SK-MEL-2
HCC 2998 = test system: HCC 2998
SK-MEL-5 = test system: SK-MEL-5
PC-3 = test system: PC-3
SK-MEL-28 = test system: SK-MEL-28
M14 = test system: M14
786-0 = test system: 786-0
SK-OV-3 = test system: SK-OV-3
OVCAR-8 = test system: OVCAR-8
Malme-3M = test system: Malme-3M
SN12C = test system: SN12C
A498 = test system: A498
SNB-75 = test system: SNB-75
BT-549 = test system: BT-549
UACC-257 = test system: UACC-257
SF-295 = test system: SF-295
MDA-MB-231 = test system: MDA-MB-231
IGROV-1 = test system: IGROV-1
HT-29 = test system: HT-29
UO-31 = test system: UO-31
HOP-62 = test system: HOP-62
A549 = test system: A549
SR = test system: SR
UACC-62 = test system: UACC-62
OVCAR-3 = test system: OVCAR-3
COLO 205 = test system: COLO 205
HCT-116 = test system: HCT-116
MOLT-4 = test system: MOLT-4
NCI-H522 = test system: NCI-H522
LOX IMVI = test system: LOX IMVI
K562 = test system: K562
T47D = test system: T47D
OVCAR-4 = test system: OVCAR-4
HCT-15 = test system: HCT-15
RXF 393 = test system: RXF 393
CAKI-1 = test system: CAKI-1
CCRF-CEM = test system: CCRF-CEM
SF-268 = test system: SF-268
MDA-MB-435 = test system: MDA-MB-435
Hs-578T = test system: Hs-578T
SNB-19 = test system: SNB-19
HOP-92 = test system: HOP-92
MCF7 = test system: MCF7
TK-10 = test system: TK-10
U-251 = test system: U-251
KM12 = test system: KM12
ACHN = test system: ACHN
NCI-H23 = test system: NCI-H23
RPMI-8226 = test system: RPMI-8226
HL-60 = test system: HL-60
SF-539 = test system: SF-539

Compound: CCCCCC(=O)OCC1(CO)C/C(=C\CC(C(C)C)C(C)C)C(=O)O1 (stereo not drawn)
- GI50 (NCI-H460): 42.3 µM (inactive)
- GI50 (NCI/ADR-RES): 87.5 µM (inactive)
- GI50 (DU-145): > 100 µM (inactive)
- GI50 (NCI-H226): 65.5 µM (inactive)
- GI50 (MDA-N): > 100 µM (inactive)
- GI50 (OVCAR-5): > 100 µM (inactive)
- GI50 (EKVX): > 100 µM (inactive)
- GI50 (SW-620): 24.4 µM (inactive)
- GI50 (SK-MEL-2): > 100 µM (inactive)
- GI50 (HCC 2998): > 100 µM (inactive)
- GI50 (SK-MEL-5): 38.4 µM (inactive)
- GI50 (PC-3): > 100 µM (inactive)
- GI50 (SK-MEL-28): 59.3 µM (inactive)
- GI50 (M14): > 100 µM (inactive)
- GI50 (786-0): 31.9 µM (inactive)
- GI50 (SK-OV-3): > 100 µM (inactive)
- GI50 (OVCAR-8): 38.1 µM (inactive)
- GI50 (Malme-3M): 15.3 µM (inactive)
- GI50 (SN12C): 31.6 µM (inactive)
- GI50 (A498): 86.1 µM (inactive)
- GI50 (SNB-75): 44.4 µM (inactive)
- GI50 (BT-549): > 100 µM (inactive)
- GI50 (UACC-257): > 100 µM (inactive)
- GI50 (SF-295): 25.9 µM (inactive)
- GI50 (MDA-MB-231): > 100 µM (inactive)
- GI50 (IGROV-1): 65.8 µM (inactive)
- GI50 (HT-29): 30.7 µM (inactive)
- GI50 (UO-31): > 100 µM (inactive)
- GI50 (HOP-62): 39 µM (inactive)
- GI50 (A549): 76.9 µM (inactive)
- GI50 (SR): 27.2 µM (inactive)
- GI50 (UACC-62): > 100 µM (inactive)
- GI50 (OVCAR-3): > 100 µM (inactive)
- GI50 (COLO 205): 17.9 µM (inactive)
- GI50 (HCT-116): 45.7 µM (inactive)
- GI50 (MOLT-4): 17.9 µM (inactive)
- GI50 (NCI-H522): 21.9 µM (inactive)
- GI50 (LOX IMVI): 27 µM (inactive)
- GI50 (K562): 24.1 µM (inactive)
- GI50 (T47D): > 100 µM (inactive)
- GI50 (OVCAR-4): > 100 µM (inactive)
- GI50 (HCT-15): 75.2 µM
- GI50 (RXF 393): > 100 µM (inactive)
- GI50 (CAKI-1): 83.6 µM (inactive)
- GI50 (CCRF-CEM): 26.4 µM (inactive)
- GI50 (SF-268): > 100 µM (inactive)
- GI50 (MDA-MB-435): > 100 µM (inactive)
- GI50 (Hs-578T): 24.5 µM (inactive)
- GI50 (SNB-19): > 100 µM (inactive)
- GI50 (HOP-92): 93.3 µM (inactive)
- GI50 (MCF7): 78.7 µM (inactive)
- GI50 (TK-10): > 100 µM (inactive)
- GI50 (U-251): 25.1 µM (inactive)
- GI50 (KM12): 39.6 µM (inactive)
- GI50 (ACHN): > 100 µM (inactive)
- GI50 (NCI-H23): > 100 µM (inactive)

Compound: COC(=O)C1(C)OC(C)=NC1(C(=O)OC)C(=O)OC (stereo not drawn)
- GI50 (NCI-H460): > 100 µM (inactive)
- GI50 (NCI/ADR-RES): > 100 µM (inactive)
- GI50 (DU-145): > 100 µM (inactive)
- GI50 (NCI-H226): > 100 µM (inactive)
- GI50 (MDA-N): > 100 µM (inactive)
- GI50 (OVCAR-5): > 100 µM (inactive)
- GI50 (EKVX): > 100 µM (inactive)
- GI50 (SW-620): > 100 µM (inactive)
- GI50 (SK-MEL-2): > 100 µM (inactive)
- GI50 (HCC 2998): > 100 µM (inactive)
- GI50 (RPMI-8226): > 100 µM (inactive)
- GI50 (SK-MEL-5): > 100 µM (inactive)
- GI50 (PC-3): > 100 µM (inactive)
- GI50 (SK-MEL-28): > 100 µM (inactive)
- GI50 (M14): > 100 µM (inactive)
- GI50 (786-0): > 100 µM (inactive)
- GI50 (SK-OV-3): > 100 µM (inactive)
- GI50 (OVCAR-8): > 100 µM (inactive)
- GI50 (HL-60): 2.18 µM (inactive)
- GI50 (Malme-3M): > 100 µM (inactive)
- GI50 (SN12C): > 100 µM (inactive)
- GI50 (A498): > 100 µM (inactive)
- GI50 (SNB-75): > 100 µM (inactive)
- GI50 (SF-539): > 100 µM (inactive)
- GI50 (BT-549): > 31.6 µM (inactive)
- GI50 (UACC-257): > 100 µM (inactive)
- GI50 (SF-295): > 100 µM (inactive)
- GI50 (MDA-MB-231): > 100 µM (inactive)
- GI50 (IGROV-1): > 100 µM (inactive)
- GI50 (HT-29): > 100 µM (inactive)
- GI50 (UO-31): > 100 µM (inactive)
- GI50 (HOP-62): > 100 µM (inactive)
- GI50 (A549): > 100 µM (inactive)
- GI50 (SR): > 100 µM (inactive)
- GI50 (UACC-62): > 100 µM (inactive)
- GI50 (OVCAR-3): > 100 µM (inactive)
- GI50 (COLO 205): > 100 µM (inactive)
- GI50 (HCT-116): > 100 µM (inactive)
- GI50 (MOLT-4): > 100 µM (inactive)
- GI50 (LOX IMVI): > 100 µM (inactive)
- GI50 (K562): > 100 µM (inactive)
- GI50 (T47D): > 100 µM (inactive)
- GI50 (OVCAR-4): > 100 µM (inactive)
- GI50 (HCT-15): > 100 µM
- GI50 (RXF 393): > 100 µM (inactive)
- GI50 (CAKI-1): > 100 µM (inactive)
- GI50 (SF-268): > 100 µM (inactive)
- GI50 (MDA-MB-435): > 100 µM (inactive)
- GI50 (Hs-578T): > 100 µM (inactive)
- GI50 (SNB-19): > 100 µM (inactive)
- GI50 (HOP-92): 1.45 µM (inactive)
- GI50 (MCF7): > 100 µM (inactive)
- GI50 (TK-10): > 100 µM (inactive)
- GI50 (U-251): > 100 µM (inactive)
- GI50 (KM12): > 100 µM (inactive)
- GI50 (ACHN): > 100 µM (inactive)
- GI50 (NCI-H23): > 100 µM (inactive)
